# Patent publication US12528802B2, “Heterocyclic compound” (Takeda Pharmaceutical Company Limited, priority 2019, dated 2026)
# Molecular target: T1, glucosylceramide synthase (Homo sapiens, UniProt Q16739)
# T1 construct: made in house; host or cells: Expi293F cells (transient expression, pcDNA3.3-TOPO vector); microsome fraction used as enzyme source
# T1 sequence (Q16739 1-394): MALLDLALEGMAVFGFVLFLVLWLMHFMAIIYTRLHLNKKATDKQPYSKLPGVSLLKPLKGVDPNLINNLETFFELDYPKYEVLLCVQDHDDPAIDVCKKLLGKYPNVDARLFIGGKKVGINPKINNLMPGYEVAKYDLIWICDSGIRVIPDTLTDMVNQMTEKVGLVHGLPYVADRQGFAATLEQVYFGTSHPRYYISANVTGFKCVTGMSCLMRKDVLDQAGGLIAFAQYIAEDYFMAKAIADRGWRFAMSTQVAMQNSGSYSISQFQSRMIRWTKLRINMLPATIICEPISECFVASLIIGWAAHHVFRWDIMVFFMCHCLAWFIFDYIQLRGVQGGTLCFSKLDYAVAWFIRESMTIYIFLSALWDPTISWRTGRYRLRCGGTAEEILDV
# Assay: Glucosylceramide synthase (GCS) enzyme assay, microsome fraction, C8 glucosylceramide quantified by Rapidfire MS/MS
# Format: biochemical
# Details: test compound 10 μM; 1.7 μM UDP-glucose, 3 μM C8 ceramide; room temperature 60 min; read-out: GCS enzyme inhibitory rate at 10 μM (%) (% of control)
# In short: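 Test compound, 10 μM final, was run against human GCS from transfected Expi293F microsome fractions, using substrate solution of 6 μM C8 ceramide (in DOPC liposomes) plus 3.4 μM UDP-glucose, pH 7.5 Tris buffer, 60 min, room temperature. Product C8 glucosylceramide measured by Rapidfire MS/MS against an internal standard, % inhibition referenced to no-enzyme and DMSO wells.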
row,Structure (SMILES),inhibition at 10 µM [%]
1,"N#Cc1ccc(N2Cc3c(ccnc3-c3ccccc3OC(F)F)C2=O)nc1 [Example 73, 6-{4-[2-(difluoromethoxy)phenyl]-1-oxo-1,3-dihydro-2H-pyrrolo[3,4-c]pyridin-2-yl}pyridine-3-carbonitrile]",90
2,"O=C1c2ccnc(-c3ccccc3OC(F)F)c2CN1c1ccc(OC(F)F)nc1 [Example 74, 4-[2-(difluoromethoxy)phenyl]-2-[6-(difluoromethoxy)pyridin-3-yl]-2,3-dihydro-1H-pyrrolo[3,4-c]pyridin-1-one]",91
3,"O=C(c1ccc(-c2nccc3c2CN(c2ccc(F)cc2)C3=O)c(OC(F)F)c1)N1CCC1 [Example 78, 4-[4-(azetidine-1-carbonyl)-2-(difluoromethoxy)phenyl]-2-(4-fluorophenyl)-2,3-dihydro-1H-pyrrolo[3,4-c]pyridin-1-one]",79
4,"Cn1cc(N2Cc3c(ccnc3-c3ccc(F)cc3OCC(F)(F)F)C2=O)cn1 [Example 81, 4-[4-fluoro-2-(2,2,2-trifluoroethoxy)phenyl]-2-(1-methyl-1H-pyrazol-4-yl)-2,3-dihydro-1H-pyrrolo[3,4-c]pyridin-1-one]",86
5,"Cc1cc(N2Cc3c(ccnc3-c3ccc(F)cc3OCC(F)(F)F)C2=O)nn1C [Example 82, 2-(1,5-dimethyl-1H-pyrazol-3-yl)-4-[4-fluoro-2-(2,2,2-trifluoroethoxy)phenyl]-2,3-dihydro-1H-pyrrolo[3,4-c]pyridin-1-one]",88
6,"O=C1c2ccnc(-c3ccc(F)cc3OCC(F)(F)F)c2CN1c1cnn(CC(F)(F)F)c1 [Example 83, 4-[4-fluoro-2-(2,2,2-trifluoroethoxy)phenyl]-2-[1-(2,2,2-trifluoroethyl)-1H-pyrazol-4-yl]-2,3-dihydro-1H-pyrrolo[3,4-c]pyridin-1-one]",91
7,"O=C1c2ccnc(-c3ccc(F)cc3OCC(F)(F)F)c2CN1c1ccc(OC(F)F)nn1 [Example 90, 2-[6-(difluoromethoxy)pyridazin-3-yl]-4-[4-fluoro-2-(2,2,2-trifluoroethoxy)phenyl]-2,3-dihydro-1H-pyrrolo[3,4-c]pyridin-1-one]",85
8,"O=C1c2ccnc(-c3ccncc3OCC(F)(F)F)c2CN1c1ccc(OC(F)F)cn1 [Example 91, 2-[5-(difluoromethoxy)pyridin-2-yl]-4-[3-(2,2,2-trifluoroethoxy)pyridin-4-yl]-2,3-dihydro-1H-pyrrolo[3,4-c]pyridin-1-one]",99
9,"Cc1nn(-c2ccc(F)cc2OCC(F)(F)F)c2c1C(=O)N(c1ccc(F)cc1)C2 [Example 92, 5-(4-fluorophenyl)-1-[4-fluoro-2-(2,2,2-trifluoroethoxy)phenyl]-3-methyl-5,6-dihydropyrrolo[3,4-c]pyrazol-4(1H)-one]",57
10,"O=C1c2ccnc(-c3ccc(F)cc3OCC(F)(F)F)c2CN1c1cnn(CC(F)F)c1 [Example 93, 2-[1-(2,2-difluoroethyl)-1H-pyrazol-4-yl]-4-[4-fluoro-2-(2,2,2-trifluoroethoxy)phenyl]-2,3-dihydro-1H-pyrrolo[3,4-c]pyridin-1-one]",95
11,"O=C1c2ccnc(-c3ccc(F)cc3OCC(F)(F)F)c2CN1c1cnn(C2CC2)c1 [Example 94, 2-(1-cyclopropyl-1H-pyrazol-4-yl)-4-[4-fluoro-2-(2,2,2-trifluoroethoxy)phenyl]-2,3-dihydro-1H-pyrrolo[3,4-c]pyridin-1-one]",97
12,"CC(C)Cn1cc(N2Cc3c(ccnc3-c3ccc(F)cc3OCC(F)(F)F)C2=O)cn1 [Example 96, 4-[4-fluoro-2-(2,2,2-trifluoroethoxy)phenyl]-2-[1-(2-methylpropyl)-1H-pyrazol-4-yl]-2,3-dihydro-1H-pyrrolo[3,4-c]pyridin-1-one]",99
13,"CC(C)n1cc(N2Cc3c(ccnc3-c3ccc(F)cc3OCC(F)(F)F)C2=O)cn1 [Example 97, 4-[4-fluoro-2-(2,2,2-trifluoroethoxy)phenyl]-2-[1-(propan-2-yl)-1H-pyrazol-4-yl]-2,3-dihydro-1H-pyrrolo[3,4-c]pyridin-1-one]",96
14,"O=C1c2ccnc(-c3ccc(F)cc3OCC(F)(F)F)c2CN1c1ccc(OC2CCOCC2)cc1 [Example 98, 4-[4-fluoro-2-(2,2,2-trifluoroethoxy)phenyl]-2-{4-[(oxan-4-yl)oxy]phenyl}-2,3-dihydro-1H-pyrrolo[3,4-c]pyridin-1-one]",100
15,"O=C1c2ccnc(-c3ccc(F)cc3OCC(F)(F)F)c2CN1c1ncc(OC(F)F)cn1 [Example 99, 2-[5-(difluoromethoxy)pyrimidin-2-yl]-4-[4-fluoro-2-(2,2,2-trifluoroethoxy)phenyl]-2,3-dihydro-1H-pyrrolo[3,4-c]pyridin-1-one]",92
16,"O=C1c2ccnc(-c3ccc(F)cc3OCC(F)(F)F)c2CN1c1cnc(OC(F)F)cn1 [Example 100, 2-[5-(difluoromethoxy)pyrazin-2-yl]-4-[4-fluoro-2-(2,2,2-trifiuoroethoxy)phenyl]-2,3-dihydro-1H-pyrrolo[3,4-c]pyridin-1-one]",96
17,"O=C1c2ccnc(-c3ccc(F)cc3OCc3ccccc3)c2CN1c1ccc(OC(F)F)nc1 [Example 101, 4-[2-(benzyloxy)-4-fluorophenyl]-2-[6-(difluoromethoxy)pyridin-3-yl]-2,3-dihydro-1H-pyrrolo[3,4-c]pyridin-1-one]",79
18,"O=C1c2ccnc(-c3ccncc3OCC(F)(F)F)c2CN1c1ccc(OC(F)F)nc1 [Example 105, 2-[6-(difluoromethoxy)pyridin-3-yl]-4-[3-(2,2,2-trifluoroethoxy)pyridin-4-yl]-2,3-dihydro-1H-pyrrolo[3,4-c]pyridin-1-one]",96
19,"O=C1c2ccnc(-c3ccc(F)cc3OCC(F)(F)F)c2CN1c1ccc(OC2COC2)cc1 [Example 106, 4-[4-fluoro-2-(2,2,2-trifluoroethoxy)phenyl]-2-{4-[(oxetan-3-yl)oxy]phenyl}-2,3-dihydro-1H-pyrrolo[3,4-c]pyridin-1-one]",94
20,"CS(=O)(=O)c1ccc(N2Cc3c(ccnc3-c3ccc(F)cc3OCC(F)(F)F)C2=O)nc1 [Example 108, 4-[4-fluoro-2-(2,2,2-trifluoroethoxy)phenyl]-2-[5-(methanesulfonyl)pyridin-2-yl]-2,3-dihydro-1H-pyrrolo[3,4-c]pyridin-1-one]",64

# Second part, the compound after the results:
row,inhibition at 10 µM [%],Structure (SMILES)
1,100,"O=C1c2ccnc(-c3ccccc3OCC(F)(F)F)c2CN1c1ccc(OC(F)F)nc1 [Example 75, 2-[6-(difluoromethoxy)pyridin-3-yl]-4-[2-(2,2,2-trifluoroethoxy)phenyl]-2,3-dihydro-1H-pyrrolo[3,4-c]pyridin-1-one]"
2,91,"O=C1c2ccnc(-c3ccncc3OCC(F)(F)F)c2CN1c1ccc(F)cc1 [Example 77, 2-(4-fluorophenyl)-4-[3-(2,2,2-trifluoroethoxy)pyridin-4-yl]-2,3-dihydro-1H-pyrrolo[3,4-c]pyridin-1-one]"
3,75,"O=C1c2cnn(-c3ccc(F)cc3OCC(F)(F)F)c2CN1c1ccc(F)cc1 [Example 79, 5-(4-fluorophenyl)-1-[4-fluoro-2-(2,2,2-trifluoroethoxy)phenyl]-5,6-dihydropyrrolo[3,4-c]pyrazol-4(1H)-one]"
4,72,"COc1cc(F)ccc1-c1cncc2c1CN(c1ccc(F)cc1)C2=O [Example 80, 7-(4-fluoro-2-methoxyphenyl)-2-(4-fluorophenyl)-1,2-dihydro-3H-pyrrolo [3,4-c]pyridin-3-one]"
5,86,"O=C1c2cncc(-c3ccccc3OCC(F)(F)F)c2CN1c1ccc(F)cc1 [Example 87, 2-(4-fluorophenyl)-7-[2-(2,2,2-trifluoroethoxy)phenyl]-1,2-dihydro-3H-pyrrolo[3,4-c]pyridin-3-one]"
6,89,"CS(=O)(=O)c1ccc(N2Cc3c(ccnc3-c3ccc(F)cc3OCC(F)(F)F)C2=O)cc1 [Example 88, 4-[4-fluoro-2-(2,2,2-trifluoroethoxy)phenyl]-2-[4-(methanesulfonyl)phenyl]-2,3-dihydro-1H-pyrrolo[3,4-c]pyridin-1-one]"
7,96,"Cc1ccc(N2Cc3c(ccnc3-c3ccc(F)cc3OCC(F)(F)F)C2=O)cn1 [Example 89, 4-[4-fluoro-2-(2,2,2-trifluoroethoxy)phenyl]-2-(6-methylpyridin-3-yl)-2,3-dihydro-1H-pyrrolo[3,4-c]pyridin-1-one]"
8,90,"CN(C)C(=O)c1ccc(N2Cc3c(ccnc3-c3ccc(F)cc3OCC(F)(F)F)C2=O)cc1 [Example 102, 4-{4-[4-fluoro-2-(2,2,2-trifluoroethoxy)phenyl]-1-oxo-1,3-dihydro-2H-pyrrolo[3,4-c]pyridin-2-yl}-N,N-dimethylbenzamide]"
9,98,"O=C1c2ccnc(-c3ccccc3OCC3CC(F)(F)C3)c2CN1c1ccc(F)cc1 [Example 103, 4-{2-[(3,3-difluorocyclobutyl)methoxy]phenyl}-2-(4-fluorophenyl)-2,3-dihydro-1H-pyrrolo[3,4-c]pyridin-1-one]"
10,99,"O=C1c2ccnc(-c3ccncc3OCC(F)(F)F)c2CN1c1ccc(OC(F)F)cc1 [Example 104, 2-[4-(difluoromethoxy)phenyl]-4-[3-(2,2,2-trifluoroethoxy)pyridin-4-yl]-2,3-dihydro-1H-pyrrolo[3,4-c]pyridin-1-one]"
